From patent US20130269045A1, “HB-EGF DEFICIENT TRANSGENIC ANIMAL AND PRODUCTION METHOD THEREOF” (Nagasaki University, priority 2012, published 2013)

Experiments:
Assay type in all cases: in vivo
[1] = system: HB-EGF deficient type TG mouse; assay: Cylindrical platform test (impulsivity), ratio of mice remained on the platform; conditions: for impulsivity (conclusion in words): HB-EGF deficient type TG mouse, 1 mg/kg i.p. once a day for 7 days; for ratio of the mice that were remained on the platform: HB-EGF deficient type mouse, 1 mg/kg into the abdominal cavity once a day for 7 days, column height 20 cm, diameter 10 cm, untreated TG only 20%, non-deficient 80% or more
Experimental: Further, the behavior of each mouse of the descending from the top of the platform to the floor was observed by classifying into the positive performing (=jumped down from the head) and the negative performing (=fall off from the tail).
(§1) As the therapeutic agent, three drugs of atomoxetine (1 mg/kg), nefiracetam (1 mg/kg), and SA4503 (1 mg/kg) were used independently to administer into the abdominal cavity once a day for 7 days in a row. As a control of the therapeutic agent, saline was administered into the abdominal cavity once a day for 7 days in a row.
In the mouse in which HB-EGF is not deficient, 80% or more of the mice were remained on the platform. On the other hand, in the HB-EGF deficient type mouse, only 20% of the mice were remained on the platform. However, in the case of administering atomoxetine to the HB-EGF deficient type mouse, 50% or more of the mice were remained on the platform. Further, in the case of administering nefiracetam to the HB-EGF deficient type mouse, 70% or more of the mice were remained on the platform.

[2] = system: HB-EGF deficient type TG mouse; assay: Nest-building test (social behavior, interest and consideration for the surrounding environment); conditions: 1 mg/kg i.p. once a day for 7 days; for state of the nest: collecting the cotton in one place and making the nest: FIG. 16(a); for amount of the cotton that was not used for the nest-building: Nestlet 2.5 g provided, FIG. 16(c); for rating on 5-point scale for the state of the nest: score criteria 1-5 (5 = almost perfect nest), FIG. 16(b)
Experimental: The nest-building test was carried out in accordance with the following processes. First, from one hour before the darkness period (19:00) of the light and darkness cycle (light period 8:00 to 20:00/darkness period 20:00 to 8:00), each mouse was reared alone in a new cage, and provided with Nestlet (2.5 g) that is a material for the nest-building. During the darkness period 20:00 to 8:00, each mouse acted freely, in the next morning the nest shape that was made by each mouse was scored on 5-point scale, and the unused Nestlet amount was measured. The score was determined by the following criteria.
1: 90% of the Nestlet was unused.
2: the Nestlet was slightly used, however, 50 to 90% of the Nestlet was left unused.
3: 50 to 90% of the Nestlet was torn off finely, and the shape was not maintained as the nest.
5: 90% or more of the Nestlet was torn off finely, and used as a material of the nest, the nest was dug into a crater-like shape, and the (almost) perfect nest that buries the whole body of the mouse when viewed from the side was confirmed.
as §1

[3] = system: HB-EGF deficient type TG mouse; assay: Marble-burying behavior test (obsessive-compulsive disorder related anxiety-like behavior); conditions: 1 mg/kg i.p. once a day for 7 days; for number of the marbles that were buried: 25 marbles, 30 minutes, saline group: large, FIG. 17
Experimental: The marble-burying behavior test was carried out in accordance with the following processes. First, in a cage in which bedding was carpeted in around 5 cm depth, 25 blue-colored marbles with 17 mm were equally arranged, and the marble-burying behavior of each mouse were measured for 30 minutes. After a lapse of 30 minutes, when observed from straight above, the marbles those were buried two-thirds or more thereof with bedding were counted. Further, the acting amount of burying marbles was determined by SCANET. In the marble-burying behavior test, the more the number of marbles that buried after the test, the more the anxiety-like behavior enhanced.
as §1

SMILES | impulsivity (conclusion in words) [1] | ratio of the mice that were remained on the platform [1] | social behavior, interest and consideration for the surrounding environment (conclusion in words) [2] | state of the nest: collecting the cotton in one place and making the nest [2] | amount of the cotton that was not used for the nest-building [2] | rating on 5-point scale for the state of the nest [2] | anxiety-like behavior related to obsessive-compulsive disorder (conclusion in words) [3] | number of the marbles that were buried [3]
Cc1cccc(C)c1NC(=O)CN1CCCC1=O [nefiracetam] | the impulsivity was suppressed | ≥ 70% | improved the social behavior, and the interest and consideration for the surrounding environment | could collect the cotton in one place and could make the nest | around 0.1 g | 5 | the anxiety-like behavior related to obsessive-compulsive disorder was decreased | small
COc1ccc(CCN2CCN(CCCc3ccccc3)CC2)cc1OC [SA4503] |  |  | improved the social behavior, and the interest and consideration for the surrounding environment | could collect the cotton in one place and could make the nest | around 0.1 g | 5 |  | the same level as that of the HB-EGF deficient type TG mouse into which saline had been administered
CNCC[C@@H](Oc1ccccc1C)c1ccccc1 [atomoxetine] | the impulsivity was suppressed | ≥ 50% |  | could not collect the cotton in one place and could not make the nest |  | ≤ 3 |  | the same level as that of the HB-EGF deficient type TG mouse into which saline had been administered
